Here are results for 14 molecules from article PMC11513893, “Discovery of Oral Degraders of the ROS1 Fusion Protein with Potent Activity against Secondary Resistance Mutations” (Journal of Medicinal Chemistry, 2024).

One assay concerns ROS1. As to the kind of experiment: ROS1 degradation in Ba/F3 cells (WES immunoblotting). In kind it is cell-based. The conditions noted are these: for DC50: concentration needed to reduce ROS1 protein by 50%, Ba/F3 cells; for Dmax (%) (ROS1): maximal degradation of ROS1 in Ba/F3 cells. How it is done: Protein levels were analyzed using a WES instrument according to the WES User Guide from ProteinSimple in duplicate experiments. The samples were mixed with the fluorescent 5 master mix (ProteinSimple) and then heated at 95 °C for 5 min. Boiled samples, biotinylated protein ladder, antibody diluent, Streptavidin-HRP, primary antibodies, ProteinSimple horseradish peroxidase conjugated antirabbit or antimouse secondary antibodies, luminol-peroxide, and wash buffer were loaded into the WES plate (Wes 12–230 kDa Prefilled Plates with Split Buffer, ProteinSimple). The plates and capillary cartridges were loaded into the WES instrument, and protein separation, antibody incubation, and imaging were performed according to manufacturer’s instructions. Compass software (ProteinSimple) was used to acquire the data and to generate the virtual blot image reconstruction and chemiluminescence signal intensity electropherograms. […] Protein levels are expressed as the AUC of the peak chemiluminescence intensity. Antibodies against phospho-ROS1(Tyr2274/2334) (E8F5J), ROS1 (D4D6(R)) were obtained from Cell Signaling Technology.
For orientation: A western blot detects proteins with antibodies after separation by electrophoresis.

For a further assay, the system named is Ba/F3 ROS1-G2032R. The experiment in a line: Antiproliferation assay. In kind it is cell-based, mouse. The settings on record: Ba/F3 cells, cell growth inhibition, 72 h. The text has this: (§1) To assess targeted degradation of ROS1 fusion proteins, we first established a mouse pro-B cell line Ba/F3 as a model expressing the CD74-ROS1 oncogene or CD74-ROS1 with clinically observed secondary/tertiary mutations. The Ba/F3 cell line is dependent on interleukin-3 for survival and proliferation. Upon transduction of oncogenic ROS1, Ba/F3 cells become independent of interleukin-3 but dependent on the transduced driver gene.
(§2) Ba/F3 immortalized murine bone marrow–derived pro-B cells were obtained from Creative Biogene (Shirley, NY) and cultured in RPMI supplemented with 10% FBS and IL3 (0.5 ng/mL). Ba/F3 cells expressing ROS1 variants were maintained in RPMI supplemented with 10% FBS and puromycin (0.7 mg/mL). […] Each compound was dissolved in DMSO and serially diluted in RPMI for cell culture experiments.
(§3) To assess the 72 h effect of drug treatment on cell proliferation, 2000 to 3000 cells were plated in replicates of three in 96-well plates. The plates were placed in an incubator at 37 °C, 5% CO2 for 72 h. Following drug treatments, the cells were incubated with the Alamar Blue Assay reagent (BioRad), 5 μL each well for 4 h at 37 °C and 5% CO2. Luminescence was measured on a multiplate reader and analyzed. […] IC50 values were determined using a nonlinear regression model with a sigmoidal dose response in GraphPad. The data were collected based on triplicate experiments, and presented as mean ± SD.
(§4) The resulting virus was used to infect Ba/F3 cells. After retroviral infection, Ba/F3 cells were selected by incubation with puromycin (0.7 mg/mL) for 2 weeks. For Ba/F3 cells infected by the CD74–ROS1 variants, IL3 was withdrawn from the culture medium at least 2 weeks before the experiments.

Assay [1] has as its system Ba/F3 CD74-ROS1 non mutant. The experiment in a line: Antiproliferation assay (Alamar Blue, 72 h). In kind it is cell-based, mouse. The conditions noted are these: Ba/F3 cells, cell growth inhibition.
Excerpt: as §1, §2, §3, §4
On the technique in general: Resazurin is reduced to fluorescent resorufin, in cell work by metabolically active cells.

For orientation: DC50 means the concentration giving 50% degradation. As a reminder, the IC50 is the point on the concentration scale where inhibition reaches its midpoint. A low value points to greater potency in that assay. On to “3-(5-(4-((4-(4-((5-Chloro-4-((2-(dimethylphosphoryl)phenyl)amino)pyrimidin-2-yl)amino)-3-methoxyphenyl)piperazin-1-yl)methyl)piperidin-1-yl)-1-oxoisoindolin-2-yl)piperidine-2,6-dione [9n]”, for which, in the assay on ROS1, it took 11 nM to reach half-maximal degradation (DC50) and the “Dmax (%) (ROS1)” value stood at 93%. Besides, in the assay on Ba/F3 ROS1-G2032R, the IC50 came to 195 ± 124 nM. Besides, 9.5 ± 0.5 nM corresponded to half-maximal inhibition in assay [1] (IC50).

In the case of “4-(3-(4-(1-(4-((5-Chloro-4-((2-(dimethylphosphoryl)phenyl)amino)pyrimidin-2-yl)amino)-3-methoxyphenyl)piperidin-4-yl)piperazin-1-yl)azetidin-1-yl)-2-(2,6-dioxopiperidin-3-yl)isoindoline-1,3-dione [9j]”, in the assay on ROS1, half-maximal degradation (DC50) was put at 108 nM. In addition, the “Dmax (%) (ROS1)” value with ROS1 is reported as 77%. For the same molecule, the results for the IC50 (in the assay on Ba/F3 ROS1-G2032R; in assay [1]) were 1040 ± 96 nM and 113 ± 16 nM, respectively.

Turning to `C[C@@H](Oc1cc(-c2cnn(C3CCN(c4cccc5c4C(=O)N(C4CCC(=O)NC4=O)C5=O)CC3)c2)cnc1N)c1c(Cl)ccc(F)c1Cl` (stereo partly drawn) [7a, 4-(4-(4-(6-Amino-5-((R)-1-(2,6-dichloro-3-fluorophenyl)ethoxy)pyridin-3-yl)-1H-pyrazol-1-yl)piperidin-1-yl)-2-(2,6-dioxopiperidin-3-yl)isoindoline-1,3-dione], in the assay with ROS1, the DC50 was found to be 310 nM and the “Dmax (%) (ROS1)” value was determined as 67%. The molecule also registered an IC50 with Ba/F3 ROS1-G2032R (Mus musculus, BaF3) greater than 5000 nM. Besides, the IC50 in assay [1] (Mus musculus, BaF3, 72 h) came out at 264 ± 44 nM.

Take `C[C@@H](Oc1cc(-c2cnn(C3CCN(CC4CN(c5cccc6c5C(=O)N(C5CCC(=O)NC5=O)C6=O)C4)CC3)c2)cnc1N)c1c(Cl)ccc(F)c1Cl` (stereo partly drawn) [7b, 4-(3-((4-(4-(6-Amino-5-((R)-1-(2,6-dichloro-3-fluorophenyl)ethoxy)pyridin-3-yl)-1H-pyrazol-1-yl)piperidin-1-yl)methyl)azetidin-1-yl)-2-(2,6-dioxopiperidin-3-yl)isoindoline-1,3-dione]: in the assay with ROS1, the DC50 is greater than 1000 nM and the “Dmax (%) (ROS1)” value was less than 5%. Moreover, the IC50 in the assay with Ba/F3 ROS1-G2032R (Mus musculus, BaF3) is greater than 5000 nM. Besides, 2700 ± 254 nM corresponded to half-maximal inhibition in assay [1] (Mus musculus, BaF3, 72 h) (IC50).

For the molecule `C[C@@H](Oc1cc(-c2cnn(C3CCN(CC4CCN(c5cccc6c5C(=O)N(C5CCC(=O)NC5=O)C6=O)CC4)CC3)c2)cnc1N)c1c(Cl)ccc(F)c1Cl` (stereo partly drawn) [7c, 4-(4-((4-(4-(6-Amino-5-((R)-1-(2,6-dichloro-3-fluorophenyl)ethoxy)pyridin-3-yl)-1H-pyrazol-1-yl)piperidin-1-yl)methyl)piperidin-1-yl)-2-(2,6-dioxopiperidin-3-yl)isoindoline-1,3-dione], in the assay on ROS1, the DC50 is 368 nM and the “Dmax (%) (ROS1)” value is 76%. The molecule further came in with an IC50 with Ba/F3 ROS1-G2032R (Mus musculus, BaF3) greater than 5000 nM. The same molecule returned an IC50 in assay [1] (Mus musculus, BaF3, 72 h) of 350 ± 106 nM.

`C[C@@H](Oc1cc(-c2cnn(C3CCN(CCC4CCN(c5cccc6c5C(=O)N(C5CCC(=O)NC5=O)C6=O)CC4)CC3)c2)cnc1N)c1c(Cl)ccc(F)c1Cl` (stereo partly drawn) [7d, 4-(4-(2-(4-(4-(6-Amino-5-((R)-1-(2,6-dichloro-3-fluorophenyl)ethoxy)pyridin-3-yl)-1H-pyrazol-1-yl)piperidin-1-yl)ethyl)piperidin-1-yl)-2-(2,6-dioxopiperidin-3-yl)isoindoline-1,3-dione]: the DC50 in the assay with ROS1 was determined as 145 nM. Further, in the assay on ROS1, the “Dmax (%) (ROS1)” value was found to be 78%. The IC50 in the assay on Ba/F3 ROS1-G2032R (Mus musculus, BaF3) was greater than 5000 nM; in assay [1] (Mus musculus, BaF3, 72 h), 106 ± 29 nM.

`C[C@@H](Oc1cc(-c2cnn(C3CCN(c4ccc5c(c4)C(=O)N(C4CCC(=O)NC4=O)C5=O)CC3)c2)cnc1N)c1c(Cl)ccc(F)c1Cl` (stereo partly drawn) [7e, 5-(4-(4-(6-Amino-5-((R)-1-(2,6-dichloro-3-fluorophenyl)ethoxy)pyridin-3-yl)-1H-pyrazol-1-yl)piperidin-1-yl)-2-(2,6-dioxopiperidin-3-yl)isoindoline-1,3-dione] gave a DC50 in the assay with ROS1 of 203 nM. Further, the “Dmax (%) (ROS1)” value in the assay with ROS1 worked out at 53%. The half-maximal inhibitory concentration (IC50) came to 2910 ± 742 nM with Ba/F3 ROS1-G2032R (Mus musculus, BaF3) and 155 ± 21 nM in assay [1] (Mus musculus, BaF3, 72 h).

With `C[C@@H](Oc1cc(-c2cnn(C3CCN(CC4CN(c5ccc6c(c5)C(=O)N(C5CCC(=O)NC5=O)C6=O)C4)CC3)c2)cnc1N)c1c(Cl)ccc(F)c1Cl` (stereo partly drawn) [7f, 5-(3-((4-(4-(6-Amino-5-((R)-1-(2,6-dichloro-3-fluorophenyl)ethoxy)pyridin-3-yl)-1H-pyrazol-1-yl)piperidin-1-yl)methyl)azetidin-1-yl)-2-(2,6-dioxopiperidin-3-yl)isoindoline-1,3-dione], in the assay with ROS1, the DC50 stood at 622 nM and the “Dmax (%) (ROS1)” value is given as 24%. The molecule further gave an IC50 in the assay on Ba/F3 ROS1-G2032R (Mus musculus, BaF3) greater than 5000 nM. In addition, in assay [1] (Mus musculus, BaF3, 72 h), half-maximal inhibition (IC50) required 569 ± 73 nM.

Turning to `C[C@@H](Oc1cc(-c2cnn(C3CCN(CC4CCN(c5ccc6c(c5)C(=O)N(C5CCC(=O)NC5=O)C6=O)CC4)CC3)c2)cnc1N)c1c(Cl)ccc(F)c1Cl` (stereo partly drawn) [7g, 5-(4-((4-(4-(6-Amino-5-((R)-1-(2,6-dichloro-3-fluorophenyl)ethoxy)pyridin-3-yl)-1H-pyrazol-1-yl)piperidin-1-yl)methyl)piperidin-1-yl)-2-(2,6-dioxopiperidin-3-yl)isoindoline-1,3-dione], in the assay with ROS1, half-maximal degradation (DC50) was put at 21 nM and the “Dmax (%) (ROS1)” value is 85%. In the assay with Ba/F3 ROS1-G2032R (Mus musculus, BaF3), the IC50 is greater than 5000 nM. In assay [1] (Mus musculus, BaF3, 72 h), the IC50 was 15 ± 4 nM.

Turning to `C[C@@H](Oc1cc(-c2cnn(C3CCN(CCC4CCN(c5ccc6c(c5)C(=O)N(C5CCC(=O)NC5=O)C6=O)CC4)CC3)c2)cnc1N)c1c(Cl)ccc(F)c1Cl` (stereo partly drawn) [7h, 5-(4-(2-(4-(4-(6-Amino-5-((R)-1-(2,6-dichloro-3-fluorophenyl)ethoxy)pyridin-3-yl)-1H-pyrazol-1-yl)piperidin-1-yl)ethyl)piperidin-1-yl)-2-(2,6-dioxopiperidin-3-yl)isoindoline-1,3-dione], in the assay with ROS1, the DC50 was greater than 1000 nM and the “Dmax (%) (ROS1)” value is given as 11%. The molecule also showed an IC50 with Ba/F3 ROS1-G2032R (Mus musculus, BaF3) greater than 5000 nM. In assay [1] (Mus musculus, BaF3, 72 h), this molecule displayed an IC50 of 842 ± 172 nM.

As to `C[C@@H](Oc1cc(-c2cnn(C3CCN(CC4CCN(CC5CCN(c6ccc7c(c6)C(=O)N(C6CCC(=O)NC6=O)C7=O)CC5)CC4)CC3)c2)cnc1N)c1c(Cl)ccc(F)c1Cl` (stereo partly drawn) [7i, 5-(4-((4-((4-(4-(6-Amino-5-((R)-1-(2,6-dichloro-3-fluorophenyl)ethoxy)pyridin-3-yl)-1H-pyrazol-1-yl)piperidin-1-yl)methyl)piperidin-1-yl)methyl)piperidin-1-yl)-2-(2,6-dioxopiperidin-3-yl)isoindoline-1,3-dione], in the assay with ROS1, it took 338 nM to reach half-maximal degradation (DC50) and the “Dmax (%) (ROS1)” value turned out to be 32%. For the same molecule, the IC50 in the assay on Ba/F3 ROS1-G2032R (Mus musculus, BaF3) was greater than 5000 nM. This molecule had an IC50 in assay [1] (Mus musculus, BaF3, 72 h) of 284 ± 51 nM.

In the case of `Cc1cc(Nc2ncc(Cl)c(Nc3ccccc3S(=O)(=O)C(C)C)n2)c(OC(C)C)cc1C1CCN(CCNc2cccc3c2C(=O)N(C2CCC(=O)NC2=O)C3=O)CC1` (stereo not shown) [8a, 4-((2-(4-(4-((5-Chloro-4-((2-(isopropylsulfonyl)phenyl)amino)pyrimidin-2-yl)amino)-5-isopropoxy-2-methylphenyl)piperidin-1-yl)ethyl)amino)-2-(2,6-dioxopiperidin-3-yl)isoindoline-1,3-dione], in the assay on ROS1, the DC50 is 225 nM. The “Dmax (%) (ROS1)” value with ROS1 is listed as 58%. For the same molecule, the IC50 in the assay with Ba/F3 ROS1-G2032R (Mus musculus, BaF3) was greater than 10000 nM; in assay [1] (Mus musculus, BaF3, 72 h) it was 176 ± 31 nM.

As to `Cc1cc(Nc2ncc(Cl)c(Nc3ccccc3S(=O)(=O)C(C)C)n2)c(OC(C)C)cc1C1CCN(CCCNc2cccc3c2C(=O)N(C2CCC(=O)NC2=O)C3=O)CC1` (stereo not shown) [8b, 4-((3-(4-(4-((5-Chloro-4-((2-(isopropylsulfonyl)phenyl)amino)pyrimidin-2-yl)amino)-5-isopropoxy-2-methylphenyl)piperidin-1-yl)propyl)amino)-2-(2,6-dioxopiperidin-3-yl)isoindoline-1,3-dione], in the assay with ROS1, the DC50 turned out to be 140 nM and the “Dmax (%) (ROS1)” value was found to be 71%. The molecule also had an IC50 in the assay on Ba/F3 ROS1-G2032R (Mus musculus, BaF3) greater than 10000 nM. Moreover, the IC50 in assay [1] (Mus musculus, BaF3, 72 h) was 122 ± 17 nM.

Turning to `Cc1cc(Nc2ncc(Cl)c(Nc3ccccc3S(=O)(=O)C(C)C)n2)c(OC(C)C)cc1C1CCN(C2CN(C3CCN(c4ccc5c(c4)C(=O)N(C4CCC(=O)NC4=O)C5=O)CC3)C2)CC1` (stereo not shown) [8p, 5-(4-(3-(4-(4-((5-Chloro-4-((2-(isopropylsulfonyl)phenyl)amino)pyrimidin-2-yl)amino)-5-isopropoxy-2-methylphenyl)piperidin-1-yl)azetidin-1-yl)piperidin-1-yl)-2-(2,6-dioxopiperidin-3-yl)isoindoline-1,3-dione], in the assay on ROS1, the DC50 was determined as 27 nM and the “Dmax (%) (ROS1)” value is listed as 93%. This molecule also had an IC50 in assay [1] (Mus musculus, BaF3, 72 h) of 40 ± 6 nM.
